According to patent US20120232290A1, “REACTIVITY OF HYDROXYMETHYLGLUTARYL COENZYME A (HMG-COA) REDUCTASE INHIBITORS CONTAINING CONJUGATED DIENES WITH PHENOLIC ANTIOXIDANTS IN THE SOLID-STATE” (priority 2007, published 2012):
Like-named read-outs stand apart in the source and are kept apart here.

Columns and labels:
[1] = Stability of isolated simvastatin hydroperoxide degradates on storage; assay type: physicochemical; conditions: stored under freezer conditions
[2] = assay type: physicochemical; conditions: for hydroxy and hydroperoxide products formed: reactions with antioxidants, determined by LC/MS; for decrease in concentration of statin / change in concentration of statin: solid-state, 50° C., 9 days
Procedure: Solvents used varied due to the solubility of the statin. […] The beaker was placed in a dark oven maintained at 50° C. overnight. The beaker was removed from the oven, allowed to cool, then 20 mL of solvent were added and the beaker swirled to redissolve the solid. The beaker was returned to the oven and heated an additional 24 h at 50° C. This dissolution and heating process was repeated daily for the duration of the specific experiment. […] Reversed-phase HPLC analyses were performed using an Agilent 1100 HPLC with an Agilent diode array detector acquiring data in the range of 205-400 nm. This LC/MS-compatible method utilized a Discovery RP Amide C16 250 mm×4.6 mm, 5 μm column (Supelco Inc, Bellefonte Pa.). Mobile phase A was aqueous 0.1% (v/v) formic acid and mobile phase B was acetonitrile containing 0.1% (v/v) formic acid. Mobile phase flow rate was 1 mL/min and the column was maintained at 30° C. The elution sequence was isocratic 60% A:40% B for 0.5 min; a gradient of 60% A:40% B to 50% A:50% B over 1.5 min then hold for 28 min; 50% A:50% B to 20% A:80% B over 1.0 min then hold for 3 min; 20% A:80% B to 100% B over 1.0 min then hold for 4 min. LC/MS analyses were performed using a Waters Acquity UPLC with PDA and a Micro Quattro MS with infusion pump with the LC method described above.

[3] = aqueous solution, radical initiator; cited from earlier work

Structure (SMILES)	decomposition of isolate on storage [1]	degradation of statin [2]	hydroxy and hydroperoxide products formed [2]	change in concentration of statin ([2]; with BHA)	change in concentration of statin ([2]; with α-tocopherol)	further results
CCC(C)(C)C(=O)OC1C[C@](C)(OO)C=C2C=CC(C)C(CCC3CC(O)CC(=O)O3)C21 (stereo partly drawn) [3(S)-hydroperoxysimvastatin]	slowly decomposed to numerous products over a few days					
CC[C@H](C)C(=O)O[C@H]1C[C@@H](C)C=C2C=C[C@H](C)[C@H](CC[C@@H]3C[C@@H](O)CC(=O)O3)[C@H]21 [lovastatin]		Minimal degradation	minimal quantities of hydroxy and hydroperoxide products	remained essentially unchanged	remained essentially unchanged	decrease in concentration of statin ([2]; incubated alone): about 12%; decrease in concentration of statin ([2]; with propyl gallate): about 12%; rates of oxidation (lovastatin versus simvastatin) [3]: nearly identical rates of oxidation
CC[C@H](C)C(=O)O[C@H]1C[C@H](O)C=C2C=C[C@H](C)[C@H](CC[C@@H](O)C[C@@H](O)CC(=O)O)[C@H]21 [pravastatin]		Minimal degradation				
CC[C@H](C)C(=O)O[C@H]1CCC=C2C=C[C@H](C)[C@H](CC[C@@H]3C[C@@H](O)CC(=O)O3)[C@H]21 [mevastatin]		Minimal degradation	minimal quantities of hydroxy and hydroperoxide products	no decrease	no decrease	change in concentration of statin ([2]; incubated alone): no decrease; change in concentration of statin ([2]; with propyl gallate): no decrease
CCC(C)(C)C(=O)OC1C[C@@](C)(OO)C=C2C=CC(C)C(CCC3CC(O)CC(=O)O3)C21 (stereo partly drawn) [3(R)-hydroperoxysimvastatin]	slowly decomposed to numerous products over a few days					
